Assay results published in ChEMBL document CHEMBL4368907 (J Med Chem, 2019).
Activity calls are given as the source filed them. The rule behind the calls is not given here. Numbered stars: 1 amine (or outer) side, 2 acyl side, 3 side chain; on linkers, the order of the positions; unused ones are H or OH. Square brackets hold non-standard residues; d marks the D form. Peptide text beside a SMILES is read from it. * marks the point of attachment. Phe(4-CH2SO3H) = N[C@@H](Cc1ccc(CS(=O)(=O)O)cc1)C(=O)O; Phenylacetyl(4-OSO3H) = O=C(Cc1ccc(OS(=O)(=O)O)cc1)*; C20 diacid = O=C(O)CCCCCCCCCCCCCCCCCCC(=O)*; sY = N[C@@H](Cc1ccc(OS(=O)(=O)O)cc1)C(=O)O; C18 diacid = O=C(O)CCCCCCCCCCCCCCCCC(=O)*; NMe1Nal = CN[C@@H](Cc1cccc2ccccc12)C(=O)O; γGlu = O=C(O)[C@H](CCC(=O)[*:2])N[*:1]; 1Nal = N[C@@H](Cc1cccc2ccccc12)C(=O)O; C14 diacid = O=C(O)CCCCCCCCCCCCC(=O)*; NMeF = CN[C@@H](Cc1ccccc1)C(=O)O; NMeD = CN[C@@H](CC(=O)O)C(=O)O; dNMeD = CN[C@H](CC(=O)O)C(=O)O; Nle = CCCC[C@H](N)C(=O)O; AEEA = NCCOCCOCC(=O)O

Legend:
[1] = target: T1, Cholecystokinin receptor type A (Homo sapiens, UniProt P32238); experiment: (§1) Displacement of [125I]-CCK-8 from human CCK1R expressed in human 1321N1 cell membranes after 2 hrs by SPA assay
T1 sequence (P32238 whole entry): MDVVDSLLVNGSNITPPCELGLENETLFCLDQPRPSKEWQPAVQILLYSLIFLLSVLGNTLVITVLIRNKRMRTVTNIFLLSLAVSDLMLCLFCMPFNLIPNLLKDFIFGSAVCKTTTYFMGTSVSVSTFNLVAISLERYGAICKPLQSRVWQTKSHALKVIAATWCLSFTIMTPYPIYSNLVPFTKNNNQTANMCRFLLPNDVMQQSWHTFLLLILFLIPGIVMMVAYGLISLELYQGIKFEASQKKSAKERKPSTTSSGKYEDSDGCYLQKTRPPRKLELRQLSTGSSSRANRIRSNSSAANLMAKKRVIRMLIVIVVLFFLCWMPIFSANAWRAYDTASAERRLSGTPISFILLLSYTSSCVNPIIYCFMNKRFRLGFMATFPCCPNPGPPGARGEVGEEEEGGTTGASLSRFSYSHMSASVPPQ

[2] = Terminal half life in Ellegaard Gottingen minipig at 5 nmol/kg, iv by LC-MS/MS analysis; format: ADME, organism-based, Sus scrofa; settings: pig, in vivo, read-out: beta t1/2 (converted)
[3] = target: T2, Cholecystokinin receptor type A (Homo sapiens) (UniProt P32238); experiment: as §1
T2 sequence (whole entry): T1 sequence (P32238 whole entry)

[4] = target: T3, Gastrin/cholecystokinin type B receptor (Homo sapiens) (UniProt P32239); experiment: (§2) Agonist activity at human CCK2R expressed in human 1321N1 cells assessed as IP1 accumulation after 1 hr by HTRF assay; format: functional, cell-based
T3 sequence (whole entry): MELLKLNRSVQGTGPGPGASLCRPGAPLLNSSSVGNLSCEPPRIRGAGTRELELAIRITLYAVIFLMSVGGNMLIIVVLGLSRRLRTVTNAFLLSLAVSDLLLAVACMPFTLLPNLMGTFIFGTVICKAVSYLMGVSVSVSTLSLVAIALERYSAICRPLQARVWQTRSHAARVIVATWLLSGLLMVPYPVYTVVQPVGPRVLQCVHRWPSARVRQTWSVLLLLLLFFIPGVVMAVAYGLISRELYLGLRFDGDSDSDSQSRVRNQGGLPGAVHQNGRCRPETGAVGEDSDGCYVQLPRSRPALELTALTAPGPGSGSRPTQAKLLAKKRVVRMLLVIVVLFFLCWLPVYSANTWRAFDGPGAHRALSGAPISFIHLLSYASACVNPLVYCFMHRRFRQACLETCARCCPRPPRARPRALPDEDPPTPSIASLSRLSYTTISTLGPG

[5] = target: T3, Gastrin/cholecystokinin type B receptor (Homo sapiens); experiment: (§3) Displacement of [125I]-CCK-8 from human CCK2R expressed in human 1321N1 cell membranes after 2 hrs by SPA assay
[6] = target: T2, Cholecystokinin receptor type A (Homo sapiens); experiment: (§4) Agonist activity at human CCK1R expressed in human 1321N1 cells assessed as IP1 accumulation after 1 hr by HTRF assay; format: functional, cell-based
[7] = target: T1, Cholecystokinin receptor type A; experiment: as §4; format: functional, cell-based
[8] = target: T4, Gastrin/cholecystokinin type B receptor (Homo sapiens, UniProt P32239); experiment: as §2; format: functional, cell-based
T4 sequence (P32239 whole entry): T3 sequence (whole entry)

[9] = target: T4, Gastrin/cholecystokinin type B receptor; experiment: as §3

SMILES | IC50 [1] [nM] | half-life [2] [h] | pIC50 [3] | pEC50 [4] | pIC50 [5] | pEC50 [6] | EC50 [7] [nM] | EC50 [8] [nM] | IC50 [9] [nM]
CCCC[C@H](NC(=O)[C@H](Cc1ccc(CS(=O)(=O)O)cc1)NC(=O)[C@H](CC(=O)O)NC(=O)COCCOCCNC(=O)COCCOCCNC(=O)CC[C@H](NC(=O)CCCCCCCCCCCCCCCCC(=O)O)C(=O)O)C(=O)NCC(=O)N[C@@H](Cc1c[nH]c2ccccc12)C(=O)N[C@@H](CCCC)C(=O)N(C)[C@H](CC(=O)O)C(=O)N(C)[C@@H](Cc1ccccc1)C(=O)O |  |  | inactive | inactive | inactive | inactive |  |  | 
CCCC[C@H](NC(=O)[C@H](Cc1ccc(OS(=O)(=O)O)cc1)NC(=O)[C@H](CC(=O)O)NC(=O)COCCOCCNC(=O)COCCOCCNC(=O)CC[C@H](NC(=O)CCCCCCCCCCCCCCCCC(=O)O)C(=O)O)C(=O)NCC(=O)N[C@@H](Cc1c[nH]c2ccccc12)C(=O)N[C@@H](CC(C)C)C(=O)N[C@@H](CC(=O)O)C(=O)N[C@@H](Cc1ccccc1)C(N)=O |  |  | Active | Active | Active | Active |  |  | 
CCCC[C@H](NC(=O)[C@H](Cc1c[nH]c2ccccc12)NC(=O)CNC(=O)[C@H](CC(C)C)NC(=O)[C@H](Cc1ccc(CS(=O)(=O)O)cc1)NC(=O)[C@H](CC(=O)O)NC(=O)COCCOCCNC(=O)COCCOCCNC(=O)CC[C@H](NC(=O)CCCCCCCCCCCCC(=O)O)C(=O)O)C(=O)N(C)[C@H](CC(=O)O)C(=O)N(C)[C@@H](Cc1ccccc1)C(N)=O ({C14 diacid-γGlu-AEEA-AEEA}-D[Phe(4-CH2SO3H)]LGW[Nle][dNMeD][NMeF]-NH2) | 0.155 | 2 |  |  |  |  | 0.182 |  | 
CCCC[C@H](NC(=O)[C@H](Cc1c[nH]c2ccccc12)NC(=O)CNC(=O)[C@H](CC(C)C)NC(=O)[C@H](Cc1ccc(OS(=O)(=O)O)cc1)NC(=O)[C@H](CC(=O)O)NC(=O)COCCOCCNC(=O)COCCOCCNC(=O)CC[C@H](NC(=O)CCCCCCCCCCCCCCCCC(=O)O)C(=O)O)C(=O)N(C)[C@H](CC(=O)O)C(=O)N(C)[C@@H](Cc1cccc2ccccc12)C(N)=O ({C18 diacid-γGlu-AEEA-AEEA}-D[sY]LGW[Nle][dNMeD][NMe1Nal]-NH2) |  | 147 |  |  |  |  | 0.407 | 151 | 2040
CCCC[C@H](NC(=O)[C@H](Cc1ccc(OS(=O)(=O)O)cc1)NC(=O)[C@H](CC(=O)O)NC(=O)COCCOCCNC(=O)COCCOCCNC(=O)CC[C@H](NC(=O)CCCCCCCCCCCCCCCCC(=O)O)C(=O)O)C(=O)NCC(=O)N[C@@H](Cc1c[nH]c2ccccc12)C(=O)N[C@@H](CCC(=O)O)C(=O)N[C@@H](CC(=O)O)C(=O)N[C@@H](Cc1ccccc1)C(N)=O ({C18 diacid-γGlu-AEEA-AEEA}-D[sY][Nle]GWEDF-NH2) |  |  | inactive | inactive | inactive | inactive |  |  | 
CCCC[C@H](NC(=O)[C@H](Cc1ccc(OS(=O)(=O)O)cc1)NC(=O)[C@H](CC(=O)O)NC(=O)COCCOCCNC(=O)COCCOCCNC(=O)CC[C@H](NC(=O)CCCCCCCCCCCCCCCCC(=O)O)C(=O)O)C(=O)NCC(=O)N[C@@H](Cc1c[nH]c2ccccc12)C(=O)N[C@@H](Cc1ccccc1)C(=O)N[C@@H](CC(=O)O)C(=O)N[C@@H](Cc1ccccc1)C(N)=O ({C18 diacid-γGlu-AEEA-AEEA}-D[sY][Nle]GWFDF-NH2) |  |  | inactive | inactive | inactive | inactive |  |  | 
CCCC[C@H](NC(=O)[C@H](Cc1ccc(OS(=O)(=O)O)cc1)NC(=O)[C@H](CC(=O)O)NC(=O)COCCOCCNC(=O)COCCOCCNC(=O)CC[C@H](NC(=O)CCCCCCCCCCCCCCCCC(=O)O)C(=O)O)C(=O)NCC(=O)N[C@@H](Cc1c[nH]c2ccccc12)C(=O)N[C@@H](CCCCN)C(=O)N[C@@H](CC(=O)O)C(=O)N[C@@H](Cc1ccccc1)C(N)=O ({C18 diacid-γGlu-AEEA-AEEA}-D[sY][Nle]GWKDF-NH2) |  |  | inactive | inactive | inactive | inactive |  |  | 
CCCC[C@H](NC(=O)[C@H](Cc1c[nH]c2ccccc12)NC(=O)[C@H](CCCCN)NC(=O)[C@H](CCCC)NC(=O)[C@H](Cc1ccc(OS(=O)(=O)O)cc1)NC(=O)[C@H](CC(=O)O)NC(=O)COCCOCCNC(=O)COCCOCCNC(=O)CC[C@H](NC(=O)CCCCCCCCCCCCCCCCC(=O)O)C(=O)O)C(=O)N[C@@H](CC(=O)O)C(=O)N[C@@H](Cc1ccccc1)C(N)=O ({C18 diacid-γGlu-AEEA-AEEA}-D[sY][Nle]KW[Nle]DF-NH2) | 2570 |  |  |  |  |  | 912 | 0.832 | 13.5
CCCC[C@H](NC(=O)[C@H](Cc1c[nH]c2ccccc12)NC(=O)[C@@H]1CCCN1C(=O)[C@H](CCCC)NC(=O)[C@H](Cc1ccc(OS(=O)(=O)O)cc1)NC(=O)[C@H](CC(=O)O)NC(=O)COCCOCCNC(=O)COCCOCCNC(=O)CC[C@H](NC(=O)CCCCCCCCCCCCCCCCC(=O)O)C(=O)O)C(=O)N[C@@H](CC(=O)O)C(=O)N[C@@H](Cc1ccccc1)C(N)=O ({C18 diacid-γGlu-AEEA-AEEA}-D[sY][Nle]PW[Nle]DF-NH2) | 933 |  |  |  |  |  | 603 | 0.38 | 0.589
CCCC[C@H](NC(=O)[C@H](Cc1c[nH]c2ccccc12)NC(=O)CNC(=O)[C@H](CC(C)C)NC(=O)[C@H](Cc1ccc(CS(=O)(=O)O)cc1)NC(=O)[C@H](CC(=O)O)NC(=O)COCCOCCNC(=O)COCCOCCNC(=O)CC[C@H](NC(=O)CCCCCCCCCCCCCCCCCCC(=O)O)C(=O)O)C(=O)N(C)[C@H](CC(=O)O)C(=O)N(C)[C@@H](Cc1ccccc1)C(N)=O ({C20 diacid-γGlu-AEEA-AEEA}-D[Phe(4-CH2SO3H)]LGW[Nle][dNMeD][NMeF]-NH2) | 0.0407 | 153 |  |  |  |  | 0.372 |  | 

The next lines start with the values.

IC50 [1] [nM] | half-life [2] [h] | pIC50 [3] | pEC50 [4] | pIC50 [5] | pEC50 [6] | EC50 [7] [nM] | EC50 [8] [nM] | IC50 [9] [nM] | SMILES
0.107 | 2.6 |  |  |  |  |  |  |  | CCCC[C@H](NC(=O)[C@H](Cc1c[nH]c2ccccc12)NC(=O)CNC(=O)[C@H](CC(C)C)NC(=O)[C@H](Cc1ccc(OS(=O)(=O)O)cc1)NC(=O)[C@H](CC(=O)O)NC(=O)CCCCCCCCCCCCCCCCC(=O)O)C(=O)N(C)[C@H](CC(=O)O)C(=O)N(C)[C@@H](Cc1ccccc1)C(N)=O
 |  | inactive | inactive | inactive | inactive |  |  |  | CCCC[C@H](NC(=O)[C@H](Cc1ccc(OS(=O)(=O)O)cc1)NC(=O)[C@H](CC(=O)O)NC(=O)COCCOCCNC(=O)COCCOCCNC(=O)CC[C@H](NC(=O)CCCCCCCCCCCCCCCCC(=O)O)C(=O)O)C(=O)NCC(=O)N[C@@H](Cc1c[nH]c2ccccc12)C(=O)N[C@@H](C)C(=O)N[C@@H](CC(=O)O)C(=O)N[C@@H](Cc1ccccc1)C(N)=O ({C18 diacid-γGlu-AEEA-AEEA}-D[sY][Nle]GWADF-NH2)
0.0794 |  |  |  |  |  | 0.501 | 1.86 | 115 | CCCC[C@H](NC(=O)[C@H](Cc1ccc(OS(=O)(=O)O)cc1)NC(=O)[C@H](CC(=O)O)NC(=O)COCCOCCNC(=O)COCCOCCNC(=O)CC[C@H](NC(=O)CCCCCCCCCCCCCCCCC(=O)O)C(=O)O)C(=O)NCC(=O)N[C@@H](Cc1c[nH]c2ccccc12)C(=O)N[C@@H](CCCC)C(=O)N(C)[C@@H](CC(=O)O)C(=O)N[C@@H](Cc1cccc2ccccc12)C(N)=O ({C18 diacid-γGlu-AEEA-AEEA}-D[sY][Nle]GW[Nle][NMeD][1Nal]-NH2)
0.0741 | 140 |  |  |  |  | 0.363 | 89.1 |  | CCCC[C@H](NC(=O)[C@H](Cc1ccc(OS(=O)(=O)O)cc1)NC(=O)[C@H](CC(=O)O)NC(=O)COCCOCCNC(=O)COCCOCCNC(=O)CC[C@H](NC(=O)CCCCCCCCCCCCCCCCC(=O)O)C(=O)O)C(=O)NCC(=O)N[C@@H](Cc1c[nH]c2ccccc12)C(=O)N[C@@H](CCCC)C(=O)N(C)[C@H](CC(=O)O)C(=O)N[C@@H](Cc1cccc2ccccc12)C(N)=O ({C18 diacid-γGlu-AEEA-AEEA}-D[sY][Nle]GW[Nle][dNMeD][1Nal]-NH2)
0.0447 |  |  |  |  |  | 0.0251 | > 1000 | 7410 | CCCC[C@H](NC(=O)Cc1ccc(OS(=O)(=O)O)cc1)C(=O)NCC(=O)N[C@@H](Cc1c[nH]c2ccccc12)C(=O)N[C@@H](CCCC)C(=O)N(C)[C@H](CC(=O)O)C(=O)N[C@@H](Cc1ccccc1)C(N)=O ({Phenylacetyl(4-OSO3H)}-[Nle]GW[Nle][dNMeD]F-NH2)
